pEC50: −log10 of the molar value.
Assays:
hTAAR1 = molecular target: T1, hTAAR1 (Homo sapiens, UniProt Q96RJ0); assay: G protein (mini-Gs) recruitment luminescence complementation assay, agonist mode; type: cell-based
T1 construct: expressed in transfected cells; host or cells: Expi293F
T1 sequence (Q96RJ0 1-339): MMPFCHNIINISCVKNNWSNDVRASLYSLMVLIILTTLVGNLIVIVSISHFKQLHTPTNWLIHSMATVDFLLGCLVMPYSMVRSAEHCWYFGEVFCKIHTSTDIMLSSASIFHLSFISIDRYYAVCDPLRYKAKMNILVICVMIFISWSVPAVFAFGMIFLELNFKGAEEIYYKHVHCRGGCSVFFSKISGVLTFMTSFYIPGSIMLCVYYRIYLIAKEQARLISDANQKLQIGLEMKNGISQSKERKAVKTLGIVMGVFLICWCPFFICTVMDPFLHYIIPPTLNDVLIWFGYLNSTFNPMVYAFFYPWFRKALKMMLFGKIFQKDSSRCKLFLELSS
Protocol: The 62 predicted ligands were purchased from commercial vendors and tested for activity at a concentration of 20 μM in a luminescence complementation–based assay measuring recruitment of mini-Gs to the human TAAR1 ([38]).
To monitor TAAR1 activation by compounds, we used our previously described system. […] Cells were then reseeded in solid white, 96-well plates (Corning) with 90 μl of cell suspension per well. Luminescence was read using a plate reader for 5 min (SPARK 10 M, Tecan) before the addition of compounds to ensure signal stability. Ten microliters of each compound diluted in DPBS was added, and luminescence from each well was read for 10 min, with 100-ms read time per well. The A2AR counter-screen was performed using the same protocol. In these experiments, the hTAAR1 was replaced by a C-terminally SmBiT-tagged hA2AR construct.

5-HT1D receptor = molecular target: T2, 5-HT1D receptor (Homo sapiens, UniProt P28221); assay: PRESTO-TANGO β-arrestin recruitment; type: cell-based
T2 construct: TANGO fusion module (own knowledge, Kroeze et al.: C-terminal V2 tail, TEV site and tTA); 1000000068; host or cells: HTLA (HEK293-derived)
T2 sequence (P28221 whole entry, the tested form may be a part): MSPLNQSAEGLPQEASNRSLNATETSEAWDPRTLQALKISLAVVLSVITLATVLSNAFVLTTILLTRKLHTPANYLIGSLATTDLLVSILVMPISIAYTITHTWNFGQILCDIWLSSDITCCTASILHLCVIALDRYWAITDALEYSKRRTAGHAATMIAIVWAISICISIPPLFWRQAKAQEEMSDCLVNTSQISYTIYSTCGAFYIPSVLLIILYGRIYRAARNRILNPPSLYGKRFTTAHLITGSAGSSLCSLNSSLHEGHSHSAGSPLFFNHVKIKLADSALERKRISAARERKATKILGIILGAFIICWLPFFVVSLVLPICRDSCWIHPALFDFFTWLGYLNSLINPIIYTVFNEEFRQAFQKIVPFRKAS
Protocol: (§1) Assessment of receptor activation by compounds at all human aminergic receptors were carried out using a modified version of the PRESTO-TANGO method. […] The plate was spun down, and 5 μl of a 1:25 dilution (in DPBS) of polyethylenimine (PEI) derivative (Transporter 5, Polysciences) was added (1:4 cDNA to PEI ratio) and incubated for 20 min at room temperature (RT). […] Luminescence signal was detected using a plate-reader (SPARK, Tecan) with 100-ms integration time and a 100-ms delay between well reads.

α2A receptor = molecular target: T3, α2A receptor (Homo sapiens, UniProt P08913); assay: PRESTO-TANGO β-arrestin recruitment; type: cell-based; settings: panel screen
T3 construct: TANGO fusion module (own knowledge, Kroeze et al.: C-terminal V2 tail, TEV site and tTA); 1000000068; host or cells: HTLA (HEK293-derived)
T3 sequence (P08913 1-465): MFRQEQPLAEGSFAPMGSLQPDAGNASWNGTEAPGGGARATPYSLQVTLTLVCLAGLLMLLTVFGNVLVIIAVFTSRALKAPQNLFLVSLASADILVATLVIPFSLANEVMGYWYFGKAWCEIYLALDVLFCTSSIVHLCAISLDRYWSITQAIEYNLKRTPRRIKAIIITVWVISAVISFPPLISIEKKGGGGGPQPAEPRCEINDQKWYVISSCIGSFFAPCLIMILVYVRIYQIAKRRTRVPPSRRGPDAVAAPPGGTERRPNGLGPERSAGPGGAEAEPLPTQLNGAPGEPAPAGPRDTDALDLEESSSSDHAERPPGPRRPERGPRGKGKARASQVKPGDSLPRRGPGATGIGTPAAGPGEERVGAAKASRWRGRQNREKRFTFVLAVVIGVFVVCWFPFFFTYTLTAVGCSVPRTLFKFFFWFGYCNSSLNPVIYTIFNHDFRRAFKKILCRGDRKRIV

D2 receptor = molecular target: T4, D2 receptor (Homo sapiens, UniProt P14416); assay: cell-based; type: cell-based
T4 construct: TANGO fusion module (own knowledge, Kroeze et al.: C-terminal V2 tail, TEV site and tTA); 1000000068; host or cells: HTLA (HEK293-derived)
T4 sequence (P14416 whole entry, the tested form may be a part): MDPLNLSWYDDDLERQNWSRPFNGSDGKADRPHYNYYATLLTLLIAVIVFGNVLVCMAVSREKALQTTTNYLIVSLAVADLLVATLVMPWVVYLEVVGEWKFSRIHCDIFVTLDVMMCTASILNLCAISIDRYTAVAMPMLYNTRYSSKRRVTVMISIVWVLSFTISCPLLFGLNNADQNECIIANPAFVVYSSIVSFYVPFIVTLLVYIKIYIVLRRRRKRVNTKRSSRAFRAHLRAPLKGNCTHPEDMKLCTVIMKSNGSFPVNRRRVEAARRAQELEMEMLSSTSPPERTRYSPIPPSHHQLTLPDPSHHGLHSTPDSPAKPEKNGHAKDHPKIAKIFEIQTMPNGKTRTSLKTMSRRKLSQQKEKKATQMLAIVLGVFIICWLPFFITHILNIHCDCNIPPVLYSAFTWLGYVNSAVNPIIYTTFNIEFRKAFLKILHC
Protocol: as §1

5-HT1A receptor = molecular target: T5, 5-HT1A receptor (Homo sapiens, UniProt P08908); assay: PRESTO-TANGO β-arrestin recruitment; type: cell-based; settings: panel screen
T5 construct: TANGO fusion module (own knowledge, Kroeze et al.: C-terminal V2 tail, TEV site and tTA); 1000000068; host or cells: HTLA (HEK293-derived)
T5 sequence (P08908 1-422): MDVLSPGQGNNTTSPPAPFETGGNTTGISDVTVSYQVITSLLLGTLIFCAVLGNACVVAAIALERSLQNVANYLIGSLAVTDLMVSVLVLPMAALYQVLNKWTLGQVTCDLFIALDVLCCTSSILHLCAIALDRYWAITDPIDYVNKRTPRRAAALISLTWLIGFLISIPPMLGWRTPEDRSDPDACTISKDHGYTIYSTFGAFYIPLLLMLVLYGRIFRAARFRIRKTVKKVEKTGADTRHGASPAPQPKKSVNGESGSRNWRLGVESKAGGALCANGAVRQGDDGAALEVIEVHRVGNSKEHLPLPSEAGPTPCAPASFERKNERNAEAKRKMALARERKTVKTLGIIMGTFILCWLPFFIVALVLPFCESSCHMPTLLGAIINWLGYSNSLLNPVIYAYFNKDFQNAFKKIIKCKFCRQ

H1 receptor = molecular target: T6, H1 receptor (Homo sapiens, UniProt P35367); assay: PRESTO-TANGO β-arrestin recruitment; type: cell-based; settings: panel screen, 10 μM; read-out: agonist activity, % of control
T6 construct: TANGO fusion module (own knowledge, Kroeze et al.: C-terminal V2 tail, TEV site and tTA); 1000000068; host or cells: HTLA (HEK293-derived)
T6 sequence (P35367 whole entry, the tested form may be a part): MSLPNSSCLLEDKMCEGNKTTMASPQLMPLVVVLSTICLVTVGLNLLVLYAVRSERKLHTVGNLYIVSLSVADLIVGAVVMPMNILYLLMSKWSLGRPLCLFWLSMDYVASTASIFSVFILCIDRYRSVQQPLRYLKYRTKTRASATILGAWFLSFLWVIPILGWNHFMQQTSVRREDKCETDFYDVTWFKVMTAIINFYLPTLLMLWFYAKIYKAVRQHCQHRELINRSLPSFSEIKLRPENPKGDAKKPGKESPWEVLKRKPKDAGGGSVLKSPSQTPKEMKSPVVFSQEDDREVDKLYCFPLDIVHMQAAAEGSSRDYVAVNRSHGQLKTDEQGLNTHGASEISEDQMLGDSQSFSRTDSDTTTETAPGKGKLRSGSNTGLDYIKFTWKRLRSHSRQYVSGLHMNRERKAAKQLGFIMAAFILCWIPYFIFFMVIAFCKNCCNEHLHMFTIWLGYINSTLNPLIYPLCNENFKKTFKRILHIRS

M2 receptor = molecular target: T7, M2 receptor (Homo sapiens, UniProt P08172); assay: PRESTO-TANGO β-arrestin recruitment; type: cell-based
T7 construct: TANGO fusion module (own knowledge, Kroeze et al.: C-terminal V2 tail, TEV site and tTA); 1000000068; host or cells: HTLA (HEK293-derived)
T7 sequence (P08172 1-466): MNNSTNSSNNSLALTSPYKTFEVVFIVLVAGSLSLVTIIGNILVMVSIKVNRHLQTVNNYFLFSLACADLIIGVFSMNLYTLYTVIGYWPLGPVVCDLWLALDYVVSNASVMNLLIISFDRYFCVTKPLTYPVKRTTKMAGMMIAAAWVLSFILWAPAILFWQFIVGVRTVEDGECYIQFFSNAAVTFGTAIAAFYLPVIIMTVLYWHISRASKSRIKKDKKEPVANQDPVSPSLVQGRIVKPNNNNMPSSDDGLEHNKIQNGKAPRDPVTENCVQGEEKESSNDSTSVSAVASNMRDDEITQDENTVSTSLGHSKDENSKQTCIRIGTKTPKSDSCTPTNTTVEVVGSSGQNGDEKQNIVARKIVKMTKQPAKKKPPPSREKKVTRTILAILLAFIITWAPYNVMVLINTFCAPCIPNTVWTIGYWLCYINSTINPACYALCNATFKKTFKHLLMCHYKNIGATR

TAAR1 = settings: ref Zilberg et al. ([51]); cited from earlier work

## C1=C(c2ccco2)CNCC1 [Compound 30]
hTAAR1; TAAR1
  agonist type: full agonist
hTAAR1; TAAR1, G protein recruitment assay, read-out: pEC50 (converted)
  EC50: 31.6 nM
hTAAR1; TAAR1 G protein recruitment
  fold more potent than Ulotaront: > 25 fold
  fold more potent than the reference agonist β-PEA: ~ 10 fold
hTAAR1; relative to the effect of the reference agonist β-PEA, read-out: Emax
  Emax: 112%
5-HT1D receptor
  pEC50: < 6.00
  Emax: 52%
5-HT1D receptor; panel screen
  agonism at the 5-HT1D receptor: agonism
α2A receptor
  agonism at the α2A receptor: agonism
D2 receptor; concentration-response curves
  pEC50: < 6.00
  Emax: 54%
D2 receptor; panel screen
  agonism at the D2 receptor: agonism
5-HT1A receptor
  activation of 5-HT1A receptor: did not observe a considerable activation
H1 receptor
  activity at 10 µM: 70%
M2 receptor; concentration-response curves
  pEC50: 5.00
  Emax: 125%
M2 receptor; panel screen, 10 μM, read-out: agonist activity, % of control
  activity at 10 µM: 55%

## CN1CC2c3ccccc3Oc3ccc(Cl)cc3C2C1 (stereo not drawn) [asenapine]
TAAR1
  TAAR1 agonism: potent TAAR1 agonist

From PMC11305387, “AlphaFold accelerated discovery of psychotropic agonists targeting the trace amine–associated receptor 1” (Science Advances, 2024)
